Columns and labels:
Format in all cases: cell-based
HCT-15 cells = experiment: MTS cell proliferation assay, HCT-15; conditions: Homo sapiens, 72-hour incubation
Description: (§1) Cell lines and culture conditions: Human colon cancer cells Caco-2, HT29 and HCT15, human pancreatic cancer cells BxPC3, CFPAC-1, and CAPAN-2, liver cancer cells SNU423 and kidney cells HEK293, were obtained from American Type Culture Collection (Rockville, USA). HeLa, DLD1, U937, THP-1, and NIH3T3 cells were obtained from ATCC. Huh7 cells were obtained from (Japanese Cancer Resources Bank). HeLa cells, Huh7, DLD1 and NIH-3T3 cells were cultured in DMEM (Dulbecco's modification of Eagle's Medium; Corning) supplemented with 10% Fetal Bovine Serum (FBS; Invitrogen) and 10% Fetal Calf Serum (FCS; Atlanta Biologicals) respectively. […]
(§2) MTS cell proliferation assay: Cells were detached from the plates using trypsin (0.25% for 3 mins, ATCC) and counted using a hemocytometer and were plated at 3000-1500 cells per well, in a 96-well format. […] After a 72-hour (or 120 hrs for BxPC3, CAPAN-2, SNU423) incubation with compound or vehicle, cell growth was assessed via the Promega CellTiter 96® AQueous One Solution Cell Proliferation Assay, a colorimetric method to determine the number of viable cells. 20 μL of the CellTiter 96® AQueous One Solution Reagent was added directly into cultured wells and incubated for approximately one hour, after which the absorbance at 490 nm was read with a 96-well plate reader (Opys MR Microplate Reader). […]

SNU-423 cells = experiment: MTS cell proliferation assay, SNU-423; conditions: Homo sapiens, 120 hrs incubation
Description: (§3) Cell lines and culture conditions: Human colon cancer cells Caco-2, HT29 and HCT15, human pancreatic cancer cells BxPC3, CFPAC-1, and CAPAN-2, liver cancer cells SNU423 and kidney cells HEK293, were obtained from American Type Culture Collection (Rockville, USA). HeLa, DLD1, U937, THP-1, and NIH3T3 cells were obtained from ATCC. Huh7 cells were obtained from (Japanese Cancer Resources Bank). HeLa cells, Huh7, DLD1 and NIH-3T3 cells were cultured in DMEM (Dulbecco's modification of Eagle's Medium; Corning) supplemented with 10% Fetal Bovine Serum (FBS; Invitrogen) and 10% Fetal Calf Serum (FCS; Atlanta Biologicals) respectively. U937, BxPC3, HCT15, SNU423 and THP-1 cells were grown in RPMI-1640 (Roswell Park Memorial Institute; Corning) supplemented with 10% Fetal Bovine Serum (FBS; Invitrogen). CFPAC-1 cells were cultured in Iscove's Modified Dulbecco's Medium (ATCC) supplemented with 10% FBS. CAPAN-2 and HT29 cells were cultured in McCoy's 5a medium supplemented with 10% FBS. Caco2 and HEK293 cells were grown in Eagle's Minimum Essential Medium (ATCC) with final 20% FBS concentration. All cells were maintained at 37° C. in 5% CO2 at constant 70% humidity.
(§4) MTS cell proliferation assay: Cells were detached from the plates using trypsin (0.25% for 3 mins, ATCC) and counted using a hemocytometer and were plated at 3000-1500 cells per well, in a 96-well format. The cells were seeded in the inner wells of 96 well plates, and media was added to the outer wells (blank). For NIH-3T3, 1500 cells were seeded in the inner wells of 96-well plates, and after 20 hours cells were treated with compound or DMSO (vehicle control) at appropriate concentrations (DMSO at final concentration of 1%). For other adherent cells 3000 HeLa, BxPC3, CFPAC-1, CAPAN-2, HEK293, HCT15, HT29, CaCo2, DLD1, Huh7 or SNU423 cells were seeded in in each well approximately 20 hrs prior to the treatment. For U937 and THP-1 suspension cells, 2500 cells were added to the wells of a 96-well plate on the day of treatment. After a 72-hour (or 120 hrs for BxPC3, CAPAN-2, SNU423) incubation with compound or vehicle, cell growth was assessed via the Promega CellTiter 96® AQueous One Solution Cell Proliferation Assay, a colorimetric method to determine the number of viable cells. 20 μL of the CellTiter 96® AQueous One Solution Reagent was added directly into cultured wells and incubated for approximately one hour, after which the absorbance at 490 nm was read with a 96-well plate reader (Opys MR Microplate Reader). GI50 values were determined from plots of the percentage of compound-treated cell growth to vehicle cell growth vs. compound concentration (GraphPad Prism; non-linear regression, log inhibitor verse normalized response with variable slope).

HuH7 cells = experiment: MTS cell proliferation assay, HuH7; conditions: Homo sapiens, Huh-7, 72-hour incubation
Description: as §3, §4

CaCo-2 cells = experiment: MTS cell proliferation assay, CaCo-2; conditions: Homo sapiens, 72-hour incubation
Description: as §1, §2

HT-29 cells = experiment: MTS cell proliferation assay, HT-29; conditions: Homo sapiens, 72-hour incubation
Description: as §1, §2

NIH 3T3 cells = experiment: MTS cell proliferation assay, NIH 3T3; conditions: Mus musculus, NIH3T3, 72-hour incubation
Description: as §3, with “All cells were maintained at 37° C. in 5% CO2 at constant 70% humidity.” left out
(§5) MTS cell proliferation assay: Cells were detached from the plates using trypsin (0.25% for 3 mins, ATCC) and counted using a hemocytometer and were plated at 3000-1500 cells per well, in a 96-well format. […] After a 72-hour (or 120 hrs for BxPC3, CAPAN-2, SNU423) incubation with compound or vehicle, cell growth was assessed via the Promega CellTiter 96® AQueous One Solution Cell Proliferation Assay, a colorimetric method to determine the number of viable cells. 20 μL of the CellTiter 96® AQueous One Solution Reagent was added directly into cultured wells and incubated for approximately one hour, after which the absorbance at 490 nm was read with a 96-well plate reader (Opys MR Microplate Reader). GI50 values were determined from plots of the percentage of compound-treated cell growth to vehicle cell growth vs. compound concentration (GraphPad Prism; non-linear regression, log inhibitor verse normalized response with variable slope).

HeLa cells = experiment: MTS cell proliferation assay, HeLa; conditions: Homo sapiens, 72-hour incubation
Description: as §3, with “All cells were maintained at 37° C. in 5% CO2 at constant 70% humidity.” left out
as §5

| Compound | GI50 (HCT-15 cells) | GI50 (SNU-423 cells) | GI50 (HuH7 cells) | GI50 (CaCo-2 cells) | GI50 (HT-29 cells) | GI50 (NIH 3T3 cells) | GI50 (HeLa cells) |
| --- | --- | --- | --- | --- | --- | --- | --- |
| CCOc1cc(N(C)C)ccc1C1CC(=O)Nc2cc3c(cc21)OCCO3 (racemic) [FQI-37, 9-[4-(dimethylamino)-2-ethoxy-phenyl]-3,6,8,9-tetrahydro-2H-[1,4]dioxino[2,3-g]quinolin-7-one] | 18 nM | 141 nM | 70 nM | 141 nM | 398 nM | – | – |
| CCOc1cc(N(C)C)ccc1[C@@H]1CC(=O)Nc2cc3c(cc21)OCO3 [(R)-FQI-34] | – | 251 nM | 158 nM | – | – | 5800 nM | 300 nM |
| CCOc1cc(N(C)C)ccc1[C@@H]1CC(=O)Nc2cc3c(cc21)OCCO3 [(R)-FQI-37] | – | 147 nM | 126 nM | – | – | – | – |

Source: US11420977B2, “Late SV40 (LSF) inhibitors” (Trustees of Boston University, priority 2018, dated 2022)
